Measurements taken from patent publication US8058510B2, “Method and means to modulate programmed cell death in eukaryotic cells” (Bayer Bioscience N.V., priority 1998, dated 2011).
“Also recorded” adds a separate entry of the source.

What was measured:
[1] = test system: differentiating cells of Zinnia or of Helianthus tuberosum; conditions: literature; cited from earlier work
APP [2] = molecular target: T1, APP (Arabidopsis thaliana, UniProt Q11207); test: In situ detection of poly(ADP-ribose) polymer with 10H monoclonal antibody in yeast spheroplasts expressing APP; type: cell-based; design: The full-length app cDNA was placed in pYeDP1/8-2 under the control of a galactose-inducible yeast promoter; expressed in transfected cells; host or cells: Saccharomyces cerevisiae strain DY transformed with pV8SPA, grown on galactose; conditions: DY(pV8SPA) cells grown on galactose in the presence of the inhibitor
Protocol: In situ antigen localization in yeast cells was carried out as described (Harlow and Lane, 1988). For the localization of the APP protein in yeast spheroplasts, anti-APP serum was diluted 1:3,000 to 1:5,000 in Tris-buffered saline-BSA buffer. 10H monoclonal antibody, which specifically recognizes poly(ADP-ribose) polymer (Ikajima et al., 1990) was used in a 1:100 dilution in PBS buffer. The mouse antibody were detected with the sheep anti-mouse IgG F(ab′)2 fragment conjugated to fluorescein isothiocyanate (FITC) (Sigma) at a dilution of 1:200. Rabbit IgG was detected with CY-3 conjugated sheep anti-rabbit IgG sheep F(ab)2 fragment (Sigma), at a dilution of 1:200. For the visualization of DNA, slides were incubated for 1 min in PBS with 10 μg ml^−1 of 4′,6-diamidino-2-phenylindole (DAPI; Sigma). Fluorescence imaging was performed on an Axioskop epifluorescence microscope (Zeiss, Jena, Germany). For observation of FITC and CY-3 fluorochromes, 23 and 15 filter cubes were used, respectively. Cells were photographed with Fuji Color-100 super plus film.
In addition, we tested whether APP was constitutively active in yeast cells, as has been reported for the human PARP (Collinge and Althaus, 1994). […] A positive yellowish-green fluorescence signal with 10H antibody was localized in the nucleus and was observed only in DY(pV8SPA) cells grown on galactose.

APP [3] = molecular target: T1, APP; test: Poly(ADP-ribose) polymerase activity assay in total protein extracts of yeast expressing APP
tobacco = conditions: Puchta et al., 1995; cited from earlier work
[4] = test system: Arabidopsis shoots (C24; Columbia); test: Fitness assay Arabidopsis (TTC-assay); type: in vivo; conditions: 2 mM niacinamide in incubation medium, about 20 hours; lines C24 and Columbia

Row | Molecule | development of tracheary elements [1] | positive staining with 10H antibody (poly(ADP-ribose) polymers) in the nucleus (APP [2]) | synthesis of poly(ADP-ribose) (APP [3]; 3ABA 3 mM in the reaction mix, nucleic acid depleted DY(pV8SPA) extract, FIG. 5B lane 5) | radioactivity incorporated into polymer (APP [3]; yeast strain grown with 3ABA (3 mM) versus without, 3ABA removed from extracts during desalting, FIG. 5A lane 1 vs 2) | rates of homologous intrachromosomal recombination (tobacco) | TTC-reducing capacity [4] | radioactivity incorporated into poly(ADP-ribose), 40 μg/ml DNA versus 2 μg/ml DNA (APP [3]; sonicated salmon sperm DNA, phosphor-image scanning, FIG. 5B lanes 4 and 2)
1 | NC(=O)c1cccc(N)c1 [3ABA, 3-aminobenzamide] | prevent development of tracheary elements | greatly reduced | sensitive; also recorded: blocked | More radioactivity was incorporated into polymer | increased |  | 
2 | O=c1[nH]c2ccccc2c2ccccc12 [6(5H)-phenasthridinone] | prevent development of tracheary elements |  |  |  |  |  | 
3 | NC(=O)c1cccnc1 [nicotinamide] | prevent development of tracheary elements | greatly reduced |  |  |  | higher TTC-reducing capacity | 
4 | APP: NAP protein of Arabidopsis thaliana (SEQ ID No 6), non-conventional PARP, expressed in yeast (protein, listed as Arabidopsis thaliana) MANKLKVDELRLKLAERGLSTTGVKAVLVERLEEAIAEDTKKEESKSKRKRNSSNDTYESNKLIAIGEFRGMIVKELREEAIKRGLDTTGTKKDLLERLCNDANNVSNAPVKSSNGTDEAEDDNNGFEEEKKEEKIVTATKKGAAVLDQWIPDEIKSQYHVLQRGDDVYDAILNQTNVRDNNNKFFVLQVLESDSKKTYMVYTRWGRVGVKGQSKLDGPYDSWDRAIEIFTNKFNDKTKNYWSDRKEFIPHPKSYTWLEMDYGKEENDSPVNNDIPSSSSEVKPEQSKLDTRVAKFISLICNVSMMAQHMMEIGYNANKLPLGKISKSTISKGYEVLKRISEVIDRYDRTRLEELSGEFYTVIPHDFGFKKMSQFVIDTPQKLKQKIEMVEALGEIELATKLLSVDPGLQDDPLYYHYQQLNCGLTPVGNDSEEFSMVANYMENTHAKTHSGYTVEIAQLFRASRAVEADRFQQFSSSKNRMLLWHGSRLTNWAGILSQGLRIAPPEAPVTGYMFGKGVYFADMFSKSANYCYANTGANDGVLLLCEVALGDMNELLYSDYNADNLPPGKLSTKGVGKTAPNPSEAQTLEDGVVVPLGKPVERSCSKGMLLYNEYIVYNVEQIKMRYVIQVKFNYKH |  |  |  |  |  |  | ~6 fold
